# Key:
# [1] = test system: isolated rat heart; test: Effect on isolated rat heart (Langendorff's method); conditions: 1 × 10⁻⁸ mol/min, mean ± S.D.
# Procedure: The effect of the compound of the present invention on heart of rats was examined by using the Langendorff's method [test compound: N-cyano-N′-(2-nitroxyethyl)-3-pyridinecarboximidamide (compound (13))]. Hearts were excised from male rats (weighing 250-350 g) and perfused at 80 cmH₂O in a Langendorff fashion. Krebs-Hensaleit bicarbonate solution (pH 7.4, 37°C) containing an 11 mM glucose which was oxygenated with 95% O₂- 5% CO₂ gas mixture was used as a perfusate. The left ventricular pressure was recorded by inserting a latex baloon into the left ventricle, and heart rate was determined from the pulse of it. Coronary perfusate flow was also measured with an electromagnetic flowmeter. The experiments were carried out by perfusing a perfusate containing the compound (13) for 10 minutes after an initial equilibration period for 30 minutes. As the control compound, nicorandil which has an effect opening potassium channel and is similar to the test compound in structure was used. The changes in the coronary perfusate flow and the cardiac function (heart rate × left ventricular pressure) caused by these compounds were expressed as percent changes from the preperfusion values of the compound (13) or nicorandil.
# [2] = test system: beagles; test: Hemodynamic profile in beagles (intravenously); format: in vivo; conditions: peak percent change from pretreatment
# Procedure: Hemodynamic profile of the compound of the present invention was investigated in beagles anesthetized with pentobarbital (30 mg/kg, intravenously) [test compound: N-cyano-N′-(2-nitroxyethyl)-3-pyridinecarboximidamide (compound (13))]. The thorax was opened under artificial respiration. After administering heparin in an amount of 500 units/kg, a Moravitz's cannula was introduced into the coronary sinus via the right atrium. The coronary sinus outflow was returned to the right external jagular vein. The coronary sinus outflow was measured by an electromagnetic flowmeter (MFU-2100, manufactured by Nihon Kohden) connected to the Moravitz's cannula. A cannula was inserted into the aortic arch through the subclavian artery to measure aortic blood pressure. The aortic blood pressure was measured with a pressure transducer (Nihon Kohden, TP-200T). Heart rate was monitored with a heart rate counter with R waves of electrocardiogram. All parameters were recorded on a thermosensitive recorder (WT-685G, manufactured by Nihon Kohden).
# The compound was administered through the cannula inserted into the right femoral vein. Nicorandil was used as a control. As for respective measurement items, peak changes were expressed as percent change from the pretreatment values of the compound (13) or nicorandil.
# [3] = test system: male ddY mice; test: Effect on hypoxia (survival time in mice); format: in vivo
# Procedure: The effect of the compound of the present invention [test compound: N-cyano-N′-(2-nitroxyethyl)-3-pyridinecarboximidamide (compound (13))] on hypoxia was examined in male ddY mice (4 week old). Mice were exposed to a gas mixture of 96% N₂ - 4% O₂ that was streamed in a flow rate of 5 ℓ/min.
# The time from the onset of the gas stream till the stop of respiration [survival time (sec)] was measured.
# The test compound was orally administered in the dosage form of a 2% suspension in gum arabic 30 minutes before the onset of the gas streaming. The control group was administered a gum arabic suspension only.
# [4] = Acute toxicity (oral administration); conditions: mouse, in vivo, male ddY mice, read-out: LD₅₀
# Procedure: Using male ddY mice (4 week old), acute toxicity on the oral administration of the compound of the present invention was examined [test compound: N-cyano-N′-(2-nitroxyethyl)-3-pyridinecarboximidamide (compound (13))]. As a result, LD₅₀ was about 400 mg/kg.
structure (smiles),measurement,setting,value
"N#CNC(=NCCO[N+](=O)[O-])c1cccnc1 [Compound (13), N-cyano-N'-(2-nitroxyethyl)-3-pyridinecarboximidamide]",Coronary Perfusate Flow (% change),[1]; perfusion 10 minutes,51.3±3.2 % change
same,Cardiac Function,"[1]; heart rate × left ventricular pressure, percent change from preperfusion",13.3±6.5%
same,Coronary Blood Flow,[2]; i.v. 3.0 µg/kg,16.4±1.8%
same,Heart Rate,[2]; i.v. 3.0 µg/kg,1.3±1.4%
same,Mean Aortic Blood Pressure,[2]; i.v. 3.0 µg/kg,-15.3±2.5%
same,Coronary Blood Flow,[2]; i.v. 10.0 µg/kg,96.0±17.6%
same,Heart Rate,[2]; i.v. 10.0 µg/kg,-5.9±2.8%
same,Mean Aortic Blood Pressure,[2]; i.v. 10.0 µg/kg,-38.5±3.1%
same,Coronary Blood Flow,[2]; i.v. 30.0 µg/kg,134.1±9.2%
same,Heart Rate,[2]; i.v. 30.0 µg/kg,-16.2±3.3%
same,Mean Aortic Blood Pressure,[2]; i.v. 30.0 µg/kg,-50.7±2.1%
same,Survival Time (sec) mean ± S.E.M.,[3]; 0.3 mg/kg orally 30 minutes before 96% N₂ - 4% O₂,130.27 ± 9.32 s
same,Survival Time (sec) mean ± S.E.M.,[3]; 1.0 mg/kg orally 30 minutes before 96% N₂ - 4% O₂,201.00 ± 13.40 s
same,Survival Time (sec) mean ± S.E.M.,[3]; 3.0 mg/kg orally 30 minutes before 96% N₂ - 4% O₂,523.15 ± 48.57 s
same,LD50,[4],~400 mg/kg

# Source: patent EP0388528B1, “Carboximidamide derivatives” (KIRIN BEER KABUSHIKI KAISHA, priority 1988, dated 1990)
